“Also recorded” adds a separate entry of the source.
Columns and labels:
[1] = Conversion between crystalline forms over time / relative thermodynamic stability at room temperature; type: physicochemical
Method: Several crystallization experiments were conducted in as part of a polymorph study for Compound (I). The experiments comprised different crystallization techniques such as suspension equilibration experiments, precipitations, cooling crystallizations, and vapor diffusion experiments.

[2] = Water content upon storage at high relative humidity (hygroscopicity); type: physicochemical; conditions: storage at 85% relative humidity (RH)

| Structure (SMILES) | relative thermodynamic stability of crystalline form ([1]; at room temperature) | conversion of crystalline form over time ([1]; over time) | water content upon storage [2] |
| --- | --- | --- | --- |
| CC(C)(C=C(C#N)C(=O)N1CCC[C@@H](n2nc(-c3ccc(Oc4ccccc4)cc3F)c3c(N)ncnc32)C1)N1CCN(C2COC2)CC1 [Crystalline Form B, (R)-2-[3-[4-amino-3-(2-fluoro-4-phenoxy-phenyl)pyrazolo[3,4-d]pyrimidin-1-yl]piperidine-1-carbonyl]-4-methyl-4-[4-(oxetan-3-yl)piperazin-1-yl]pent-2-enenitrile] | may be thermodynamically more stable than crystalline Form A; also recorded: may be more thermodynamically more stable than crystalline Form C | – | – |
| CC(C)(C=C(C#N)C(=O)N1CCC[C@@H](n2nc(-c3ccc(Oc4ccccc4)cc3F)c3c(N)ncnc32)C1)N1CCN(C2COC2)CC1 [crystalline Form A, (R)-2-[3-[4-amino-3-(2-fluoro-4-phenoxy-phenyl)pyrazolo[3,4-d]pyrimidin-1-yl]piperidine-1-carbonyl]-4-methyl-4-[4-(oxetan-3-yl)piperazin-1-yl]pent-2-enenitrile] | – | may convert to crystalline Form B over time | less than 1% |

Reference: US11814390B2, “Crystalline forms of 2-[3-[4-amino-3-(2-fluoro-4-phenoxy-phenyl)-1H-pyrazolo[3,4-D]pyrimidin-1-yl]piperidine-1-carbonyl]-4-methyl-4-[4-(oxetan-3-yl)piperazin-1-yl]pent-2-enenitrile” (Principia Biopharma Inc., priority 2020, dated 2023)
